The results in this text go back to ChEMBL document CHEMBL4270493, “Recent updates on third generation EGFR inhibitors and emergence of fourth generation EGFR inhibitors to combat C797S resistance” (Eur J Med Chem, 2017).

The species entered for data set [1] is Homo sapiens. Put plainly: Toxicity in patient with EGFR T790M mutant NSCLC assessed as drug discontinuation rate at 500 mg BID during phase 1/2 study. As to conditions: in vivo. The class given is organism-based.
Data set [2] is filed under the species Homo sapiens. The data set can be described thus: Toxicity in patient with EGFR T790M mutant NSCLC assessed as induction of grade 3 hyperglycemia at 500 mg BID during phase 1/2 study. The following applies: in vivo. The class given is organism-based.
Data set [3] is filed under the species Homo sapiens. Put plainly: Antitumor activity in patient with EGFR T790M mutant NSCLC assessed as disease control rate at 500 mg BID during phase 1/2 study. The class given is functional.
Data set [4] is filed under the species Homo sapiens. The data set can be described thus: Antitumor activity in patient with EGFR T790M mutant negative NSCLC assessed as overall response rate at 500 mg BID during phase 1/2 study. The class given is functional.
The species entered for data set [5] is Homo sapiens. The data set can be described thus: Toxicity in patient with EGFR T790M mutant NSCLC assessed as induction of grade 3 QTc prolongation at 500 mg BID during phase 1/2 study. It counts as organism-based. The following applies: in vivo.
For data set [6], the species on record is Homo sapiens. Put plainly: Antitumor activity in patient with EGFR T790M mutant NSCLC assessed as objective response rate at 500 mg BID during phase 1/2 study. It counts as functional.

SMILES strings stand for the structures.

Turning to `C=CC(=O)Nc1cccc(Nc2nc(Nc3ccc(N4CCN(C(C)=O)CC4)cc3OC)ncc2C(F)(F)F)c1` [ROCILETINIB], the Activity amounted to 2.5% in the data set listed under Homo sapiens [1]; 17% in the data set filed under Homo sapiens [2]; 90% in the data set listed under Homo sapiens [3]; 37% in the data set filed under Homo sapiens [4]; 2.5% in the data set listed under Homo sapiens [5]; 60% in the data set listed under Homo sapiens [6].
